Data reported in ChEMBL document CHEMBL4265943, “Design and synthesis of potent dual inhibitors of JAK2 and HDAC based on fusing the pharmacophores of XL019 and vorinostat” (Eur J Med Chem, 2018).

target: Tyrosine-protein kinase JAK2 (Homo sapiens, UniProt O60674); experiment: Inhibition of human JAK2 using poly(Glu:Tyr)(4:1) as substrate preincubated for 20 mins followed by [gamma33P]ATP addition measured after 120 mins by ion exchange filter paper method; conditions: not given
Sequence (O60674 whole entry): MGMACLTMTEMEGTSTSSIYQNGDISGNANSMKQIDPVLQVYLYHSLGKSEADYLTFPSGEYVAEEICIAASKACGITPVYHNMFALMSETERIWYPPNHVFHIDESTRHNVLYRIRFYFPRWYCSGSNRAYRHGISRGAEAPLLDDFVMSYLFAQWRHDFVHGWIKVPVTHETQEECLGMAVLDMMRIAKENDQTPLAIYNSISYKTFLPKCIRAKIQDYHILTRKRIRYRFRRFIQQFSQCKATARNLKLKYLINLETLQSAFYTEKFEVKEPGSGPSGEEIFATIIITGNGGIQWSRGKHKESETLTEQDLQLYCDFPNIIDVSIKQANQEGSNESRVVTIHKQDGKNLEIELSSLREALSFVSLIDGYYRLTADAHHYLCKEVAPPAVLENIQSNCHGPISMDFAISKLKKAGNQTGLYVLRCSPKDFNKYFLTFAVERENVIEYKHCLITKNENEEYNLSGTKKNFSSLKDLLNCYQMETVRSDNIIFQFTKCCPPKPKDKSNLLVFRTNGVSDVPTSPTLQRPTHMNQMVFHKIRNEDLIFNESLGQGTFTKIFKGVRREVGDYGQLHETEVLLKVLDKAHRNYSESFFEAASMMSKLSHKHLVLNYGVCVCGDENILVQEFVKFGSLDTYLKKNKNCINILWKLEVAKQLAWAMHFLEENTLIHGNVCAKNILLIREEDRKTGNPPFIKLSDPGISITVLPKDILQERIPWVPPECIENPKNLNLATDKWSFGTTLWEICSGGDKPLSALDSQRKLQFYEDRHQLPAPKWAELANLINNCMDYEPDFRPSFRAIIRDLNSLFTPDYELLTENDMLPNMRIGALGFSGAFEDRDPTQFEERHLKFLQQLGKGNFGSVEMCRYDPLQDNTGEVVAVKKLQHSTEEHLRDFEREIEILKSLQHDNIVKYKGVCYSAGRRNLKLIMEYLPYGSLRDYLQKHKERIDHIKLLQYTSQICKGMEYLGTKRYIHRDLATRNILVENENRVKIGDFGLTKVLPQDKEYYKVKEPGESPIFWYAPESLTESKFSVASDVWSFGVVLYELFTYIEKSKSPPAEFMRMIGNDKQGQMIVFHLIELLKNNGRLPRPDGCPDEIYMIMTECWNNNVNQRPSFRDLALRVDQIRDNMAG

| IC50 | SMILES |
| --- | --- |
| 0.0955 µM | CN1CCN(CC(=O)Nc2ccc(-c3ccnc(Nc4ccc(OCCCCCCC(=O)NO)cc4)n3)cc2)CC1 |
| 0.0043 µM | Cc1cnc(Nc2ccc(N3CCN(C)CC3)cc2)nc1-c1ccc(NC(=O)CCCCCCC(=O)NO)cc1 |

target: Histone deacetylase 1 (Homo sapiens, UniProt Q13547); experiment: Inhibition of HDAC1 (unknown origin) using Arg-His-Lys-Lys(Ac) as substrate preincubated with enzyme followed by substrate addition for 2 hrs and measured for 1.5 hrs at 15 mins time interval by fluorescence assay; conditions: not given
Sequence (Q13547 whole entry): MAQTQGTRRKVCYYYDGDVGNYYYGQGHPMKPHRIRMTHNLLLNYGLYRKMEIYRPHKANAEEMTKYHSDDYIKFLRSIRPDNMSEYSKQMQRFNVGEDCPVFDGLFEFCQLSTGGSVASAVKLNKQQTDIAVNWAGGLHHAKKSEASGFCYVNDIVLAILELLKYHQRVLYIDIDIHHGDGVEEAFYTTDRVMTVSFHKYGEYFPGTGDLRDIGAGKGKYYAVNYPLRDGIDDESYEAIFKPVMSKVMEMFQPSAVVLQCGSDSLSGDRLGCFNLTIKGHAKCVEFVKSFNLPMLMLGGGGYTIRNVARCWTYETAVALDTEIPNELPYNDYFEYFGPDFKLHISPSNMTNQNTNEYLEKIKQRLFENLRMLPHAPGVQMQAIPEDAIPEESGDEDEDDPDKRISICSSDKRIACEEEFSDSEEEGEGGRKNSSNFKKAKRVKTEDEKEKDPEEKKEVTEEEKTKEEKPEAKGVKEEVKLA

| IC50 | SMILES |
| --- | --- |
| 0.142 µM | CN1CCN(CC(=O)Nc2ccc(-c3ccnc(Nc4ccc(OCCCCCCC(=O)NO)cc4)n3)cc2)CC1 |
| 0.139 µM | Cc1cnc(Nc2ccc(N3CCN(C)CC3)cc2)nc1-c1ccc(NC(=O)CCCCCCC(=O)NO)cc1 |

target: T1, Protein deacetylase HDAC6 (Homo sapiens, UniProt Q9UBN7); experiment: Inhibition of HDAC6 (unknown origin) using Arg-His-Lys-Lys(Ac) as substrate preincubated with enzyme followed by substrate addition for 2 hrs and measured for 1.5 hrs at 15 mins time interval by fluorescence assay; conditions: not given
T1 sequence (Q9UBN7 whole entry): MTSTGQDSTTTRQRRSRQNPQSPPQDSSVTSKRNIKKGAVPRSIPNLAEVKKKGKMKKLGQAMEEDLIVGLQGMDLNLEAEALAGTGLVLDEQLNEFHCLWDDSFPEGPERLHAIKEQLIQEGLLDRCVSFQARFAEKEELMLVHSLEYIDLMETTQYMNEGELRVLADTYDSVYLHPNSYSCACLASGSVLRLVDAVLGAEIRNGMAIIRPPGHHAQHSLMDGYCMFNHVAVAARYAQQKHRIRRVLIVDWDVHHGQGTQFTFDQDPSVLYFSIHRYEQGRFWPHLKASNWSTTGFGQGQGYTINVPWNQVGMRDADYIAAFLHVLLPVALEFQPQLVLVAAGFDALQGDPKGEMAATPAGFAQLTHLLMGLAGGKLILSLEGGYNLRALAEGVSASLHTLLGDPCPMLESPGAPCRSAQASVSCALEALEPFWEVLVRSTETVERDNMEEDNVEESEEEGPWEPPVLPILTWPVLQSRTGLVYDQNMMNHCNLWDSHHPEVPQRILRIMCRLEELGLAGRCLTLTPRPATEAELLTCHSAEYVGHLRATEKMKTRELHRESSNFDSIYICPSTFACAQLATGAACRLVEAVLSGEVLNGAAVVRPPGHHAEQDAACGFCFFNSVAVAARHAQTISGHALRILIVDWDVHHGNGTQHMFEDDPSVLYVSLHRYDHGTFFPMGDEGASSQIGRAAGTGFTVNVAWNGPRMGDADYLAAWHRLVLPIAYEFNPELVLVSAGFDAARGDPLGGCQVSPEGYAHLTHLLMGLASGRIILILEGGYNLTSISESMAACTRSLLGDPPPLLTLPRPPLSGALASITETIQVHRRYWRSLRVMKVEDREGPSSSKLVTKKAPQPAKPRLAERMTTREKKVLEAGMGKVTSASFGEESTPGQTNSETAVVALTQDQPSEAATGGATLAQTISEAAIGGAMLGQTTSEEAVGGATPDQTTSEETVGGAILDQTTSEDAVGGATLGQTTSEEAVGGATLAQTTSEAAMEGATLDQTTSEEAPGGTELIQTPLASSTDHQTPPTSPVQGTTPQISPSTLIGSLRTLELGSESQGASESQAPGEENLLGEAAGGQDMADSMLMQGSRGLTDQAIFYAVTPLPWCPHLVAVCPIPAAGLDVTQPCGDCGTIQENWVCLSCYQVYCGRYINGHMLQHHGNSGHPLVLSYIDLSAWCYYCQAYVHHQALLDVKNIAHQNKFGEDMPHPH

| IC50 | SMILES |
| --- | --- |
| 0.0061 µM | CN1CCN(CC(=O)Nc2ccc(-c3ccnc(Nc4ccc(OCCCCCCC(=O)NO)cc4)n3)cc2)CC1 |
| 0.0021 µM | Cc1cnc(Nc2ccc(N3CCN(C)CC3)cc2)nc1-c1ccc(NC(=O)CCCCCCC(=O)NO)cc1 |

system: HCT-116; experiment: Antiproliferative activity against human HCT116 cells after 72 hrs by MTT assay; assay type: functional, cell-based; conditions: HCT-116, 72 h

| IC50 | SMILES |
| --- | --- |
| 1.69 µM | CN1CCN(CC(=O)Nc2ccc(-c3ccnc(Nc4ccc(OCCCCCCC(=O)NO)cc4)n3)cc2)CC1 |
| 1.05 µM | Cc1cnc(Nc2ccc(N3CCN(C)CC3)cc2)nc1-c1ccc(NC(=O)CCCCCCC(=O)NO)cc1 |

system: MDA-MB-231; experiment: Antiproliferative activity against human MDA-MB-231 cells after 72 hrs by MTT assay; assay type: functional, cell-based; conditions: MDA-MB-231, 72 h

| IC50 | SMILES |
| --- | --- |
| 3.88 µM | CN1CCN(CC(=O)Nc2ccc(-c3ccnc(Nc4ccc(OCCCCCCC(=O)NO)cc4)n3)cc2)CC1 |
| 0.97 µM | Cc1cnc(Nc2ccc(N3CCN(C)CC3)cc2)nc1-c1ccc(NC(=O)CCCCCCC(=O)NO)cc1 |

system: MCF7; experiment: Antiproliferative activity against human MCF7 cells after 72 hrs by MTT assay; assay type: functional, cell-based; conditions: MCF7, 72 h

| IC50 | SMILES |
| --- | --- |
| 4.84 µM | CN1CCN(CC(=O)Nc2ccc(-c3ccnc(Nc4ccc(OCCCCCCC(=O)NO)cc4)n3)cc2)CC1 |
| 1.3 µM | Cc1cnc(Nc2ccc(N3CCN(C)CC3)cc2)nc1-c1ccc(NC(=O)CCCCCCC(=O)NO)cc1 |

system: PC-3; experiment: Antiproliferative activity against human PC3 cells after 72 hrs by MTT assay; assay type: functional, cell-based; conditions: PC-3, 72 h

| IC50 | SMILES |
| --- | --- |
| 4.09 µM | CN1CCN(CC(=O)Nc2ccc(-c3ccnc(Nc4ccc(OCCCCCCC(=O)NO)cc4)n3)cc2)CC1 |
| 1.04 µM | Cc1cnc(Nc2ccc(N3CCN(C)CC3)cc2)nc1-c1ccc(NC(=O)CCCCCCC(=O)NO)cc1 |

system: not listed separately; experiment: Antiproliferative activity against human AC10 cells after 72 hrs by MTT assay; assay type: cell-based; conditions: not given

| SMILES | CC50 at 72 h |
| --- | --- |
| CN1CCN(CC(=O)Nc2ccc(-c3ccnc(Nc4ccc(OCCCCCCC(=O)NO)cc4)n3)cc2)CC1 | 4.1 µM |
| Cc1cnc(Nc2ccc(N3CCN(C)CC3)cc2)nc1-c1ccc(NC(=O)CCCCCCC(=O)NO)cc1 | 3.72 µM |

system: not listed separately; experiment: Antiproliferative activity against mouse TAMH cells after 72 hrs by MTT assay; assay type: cell-based; conditions: not given

| SMILES | CC50 at 72 h |
| --- | --- |
| CN1CCN(CC(=O)Nc2ccc(-c3ccnc(Nc4ccc(OCCCCCCC(=O)NO)cc4)n3)cc2)CC1 | 8.07 µM |
| Cc1cnc(Nc2ccc(N3CCN(C)CC3)cc2)nc1-c1ccc(NC(=O)CCCCCCC(=O)NO)cc1 | 7.48 µM |

system: not listed separately; experiment: Selectivity index, ratio of CC50 for human AC10 cells to IC50 for human HCT116 cells; assay type: toxicity; conditions: AC10 cells (CC50) and HCT116 cells (IC50)

| SMILES | selectivity ratio |
| --- | --- |
| CN1CCN(CC(=O)Nc2ccc(-c3ccnc(Nc4ccc(OCCCCCCC(=O)NO)cc4)n3)cc2)CC1 | 2.43 |
| Cc1cnc(Nc2ccc(N3CCN(C)CC3)cc2)nc1-c1ccc(NC(=O)CCCCCCC(=O)NO)cc1 | 3.54 |

system: not listed separately; experiment: Selectivity index, ratio of CC50 for mouse TAMH cells to IC50 for human HCT116 cells; assay type: toxicity; conditions: TAMH cells (CC50) and HCT116 cells (IC50)

| SMILES | selectivity ratio |
| --- | --- |
| CN1CCN(CC(=O)Nc2ccc(-c3ccnc(Nc4ccc(OCCCCCCC(=O)NO)cc4)n3)cc2)CC1 | 4.78 |
| Cc1cnc(Nc2ccc(N3CCN(C)CC3)cc2)nc1-c1ccc(NC(=O)CCCCCCC(=O)NO)cc1 | 7.12 |

system: not listed separately; experiment: Selectivity index, ratio of CC50 for human AC10 cells to IC50 for human MDA-MB-231 cells; assay type: toxicity; conditions: AC10 cells (CC50) and MDA-MB-231 cells (IC50)

| SMILES | selectivity ratio |
| --- | --- |
| CN1CCN(CC(=O)Nc2ccc(-c3ccnc(Nc4ccc(OCCCCCCC(=O)NO)cc4)n3)cc2)CC1 | 1.06 |
| Cc1cnc(Nc2ccc(N3CCN(C)CC3)cc2)nc1-c1ccc(NC(=O)CCCCCCC(=O)NO)cc1 | 3.84 |

system: not listed separately; experiment: Selectivity index, ratio of CC50 for mouse TAMH cells to IC50 for human MDA-MB-231 cells; assay type: toxicity; conditions: TAMH cells (CC50) and MDA-MB-231 cells (IC50)

| SMILES | selectivity ratio |
| --- | --- |
| CN1CCN(CC(=O)Nc2ccc(-c3ccnc(Nc4ccc(OCCCCCCC(=O)NO)cc4)n3)cc2)CC1 | 2.08 |
| Cc1cnc(Nc2ccc(N3CCN(C)CC3)cc2)nc1-c1ccc(NC(=O)CCCCCCC(=O)NO)cc1 | 7.71 |

system: not listed separately; experiment: Selectivity index, ratio of CC50 for human AC10 cells to IC50 for human MCF7 cells; assay type: toxicity; conditions: AC10 cells (CC50) and MCF7 cells (IC50)

| SMILES | selectivity ratio |
| --- | --- |
| CN1CCN(CC(=O)Nc2ccc(-c3ccnc(Nc4ccc(OCCCCCCC(=O)NO)cc4)n3)cc2)CC1 | 0.85 |
| Cc1cnc(Nc2ccc(N3CCN(C)CC3)cc2)nc1-c1ccc(NC(=O)CCCCCCC(=O)NO)cc1 | 2.86 |

system: not listed separately; experiment: Selectivity index, ratio of CC50 for mouse TAMH cells to IC50 for human MCF7 cells; assay type: toxicity; conditions: TAMH cells (CC50) and MCF7 cells (IC50)

| SMILES | selectivity ratio |
| --- | --- |
| CN1CCN(CC(=O)Nc2ccc(-c3ccnc(Nc4ccc(OCCCCCCC(=O)NO)cc4)n3)cc2)CC1 | 1.67 |
| Cc1cnc(Nc2ccc(N3CCN(C)CC3)cc2)nc1-c1ccc(NC(=O)CCCCCCC(=O)NO)cc1 | 5.75 |

system: not listed separately; experiment: Selectivity index, ratio of CC50 for human AC10 cells to IC50 for human PC3 cells; assay type: toxicity; conditions: AC10 cells (CC50) and PC3 cells (IC50)

| SMILES | selectivity ratio |
| --- | --- |
| CN1CCN(CC(=O)Nc2ccc(-c3ccnc(Nc4ccc(OCCCCCCC(=O)NO)cc4)n3)cc2)CC1 | 1 |
| Cc1cnc(Nc2ccc(N3CCN(C)CC3)cc2)nc1-c1ccc(NC(=O)CCCCCCC(=O)NO)cc1 | 3.58 |

system: not listed separately; experiment: Selectivity index, ratio of CC50 for mouse TAMH cells to IC50 for human PC3 cells; assay type: toxicity; conditions: TAMH cells (CC50) and PC3 cells (IC50)

| SMILES | selectivity ratio |
| --- | --- |
| CN1CCN(CC(=O)Nc2ccc(-c3ccnc(Nc4ccc(OCCCCCCC(=O)NO)cc4)n3)cc2)CC1 | 1.97 |
| Cc1cnc(Nc2ccc(N3CCN(C)CC3)cc2)nc1-c1ccc(NC(=O)CCCCCCC(=O)NO)cc1 | 7.19 |
